Patent US7217802B2, “Method and kit for detecting, or determining, 3,4-methylenedioxymethamphetamine” (Randox Laboratories Limited, priority 2001, dated 2007)
≈ marks a conversion by molar mass, not a printed value. Like-named read-outs stand apart in the source and are kept apart here.

Assays:
[1] = test system: antiserum raised to immunogen 7 (IgG fraction); assay: MDMA competitive ELISA (microtiter plate); assay type: binding, sheep; conditions: for IC50 / % CR (cross-reactivity = IC50MDMA/IC50CR x 100): Hapten 7-HRP; for % CR (cross-reactivity = IC50MDMA/IC50CR x 100): relative to MDMA 100; for level of cross-reactivity of the MDMA assays (in words): summary of Table 2
Experimental: An aqueous solution of the immunogen prepared in Example 8 was formulated with Freund's Complete Adjuvant (FCA) to form an emulsion consisting of 2 mg/ml immunogen in 50% (v/v) FCA. Two sheep were immunised with this emulsion, 0.25 ml being subcutaneously injected at each of 4 sites in the flank of each animal. Subsequent immunisations (boosts) contained 1 mg/ml immunogen emulsified in 50% (v/v) Freund's Incomplete Adjuvant (FIA) and were administered in the same manner at monthly intervals for 1 year. Blood sampling took place 7 to 14 days after each boost. Each sample was processed to produce antiserum that was further purified by caprylic acid and ammonium sulfate precipitation to yield an immunoglobulin G (IgG) fraction. The IgG fraction was evaluated by competitive microtiter plate assay, as described below.
The wells of an enhanced binding 96 well polystyrene microtiter plate were coated with the IgG fraction of the antiserum raised to Immunogen 7 (Example 8), diluted in 10 mM Tris, pH8.5 (125 μl/well). The appropriate antibody coating dilution was determined using standard ELISA chequerboard techniques. The plate was incubated for 2 hours at 37° C., washed 4 times with Tris buffered saline containing Tween 20 (TBST) and tapped dry. Standard solutions of MDMA were prepared in TBST at 0, 1, 10, 50, 100, 250, 500 and 1000 ng/ml and 25 μl of each was added to the appropriate wells (FIG. 2). Conjugates (detection reagents)-hapten 7-HRP (Example 9) and hapten 10-HRP (Example 12)—were diluted in Tris buffer, pH7.2, containing EDTA, D-mannitol, sucrose, thimerosal and BSA, appropriate dilutions being determined by standard ELISA chequerboard techniques, and 100 μl of each was added to the appropriate wells (FIG. 2). The plate was incubated at 37° C. for 2 hours. Excess unbound conjugate was removed by washing 6 times over a 10 minute period with TBST.
125 μl of tetramethylbenzidine (TMB) substrate solution was added to each well of the plate which was then incubated for 15 to 20 minutes in the dark at room temperature. The reaction was terminated by addition of 125 μl 0.2 M H2SO4 to each well. The absorbance was then measured at 450 nm using a microtiter plate reader.
In order to determine the specificity of the MDMA competitive ELISAs, standard solutions of potential cross-reactants MDEA, MDA, d-amphetamine, (+)-methamphetamine, (+)-ephedrine, (−)-ephedrine, (+)-pseudoephedrine, (−)-pseudoephedrine and 1-amphetamine were prepared in TBST at 0, 500, 1000, 5000, 10000, 25000, 50000 and 100000 ng/ml. Employing each series of standards in the MDMA competitive ELISAs, calibration curves were generated and these were used to determine the cross-reactivity of the immunoassays with these drugs. The results of this study are presented in Table 2, cross-reactivity being calculated according to the following formula: % CR=IC50MDMA/IC50CR×100
Where % CR is the percentage cross-reactivity, IC50MDMA is the concentration of MDMA that causes 50% displacement of signal and IC50CR is the concentration of potential cross-reactant, for which % CR is being evaluated, that causes 50% displacement of signal.

Cedia DAU = conditions: cited from earlier work
Emit II Plus Monoclonal = conditions: cited from earlier work
Cozart MDMA EIA = conditions: cited from earlier work; for cross-reactivity, Cozart MDMA: recalculated relative to 100% for MDMA; for cross-reactivity, Cozart MDMA EIA: compared to 100% for MDMA
Cozart Amphetamine = conditions: recalculated relative to 100% for MDMA; cited from earlier work
[2] = test system: Cozart Methamphetamine and MDMA; conditions: cited from earlier work; for cross-reactivity, Cozart Methamphetamine and MDMA: recalculated relative to 100% for MDMA
[3] = test system: Cozart methamphetamine EIA; conditions: cited from earlier work; for cross-reactivity, Cozart Methamphetamine: recalculated relative to 100% for MDMA; for cross-reactivity, Cozart methamphetamine EIA: compared to 100% for methamphetamine
[4] = in vivo; cited from earlier work
[5] = recalculated relative to 100% for MDMA

C[C@@H](N)Cc1ccccc1 [L-Amphetamine]
IC50 ([1]; Trial 2): >30 µg/mL | % CR (cross-reactivity = IC50MDMA/IC50CR x 100) ([1]; Trial 2): <0.1% | cross-reactivity, CEDIA (Cedia DAU; [5]): 4.35% | cross-reactivity, Emit (Emit II Plus Monoclonal; [5]): 120.13%

CN[C@H](C)Cc1ccccc1 [L-Methamphetamine]
cross-reactivity, Cozart MDMA (Cozart MDMA EIA): 4–22% | cross-reactivity, CEDIA (Cedia DAU; [5]): 17.4% | cross-reactivity, Emit (Emit II Plus Monoclonal; [5]): 378.7%

CN[C@H](C)[C@@H](O)c1ccccc1 [(+)-Ephedrine]
IC50 ([1]; Trial 1): >100 µg/mL | % CR (cross-reactivity = IC50MDMA/IC50CR x 100) ([1]; Trial 1): <0.017%

C[C@H](N)Cc1ccccc1 [D-Amphetamine]
IC50 ([1]; Trial 1): 52.199 µg/mL (≈ 386 µM) | % CR (cross-reactivity = IC50MDMA/IC50CR x 100) ([1]; Trial 1): 0.03% | level of cross-reactivity of the MDMA assays (in words) [1]: very low levels of cross-reactivity | cross-reactivity, Cozart Amphetamine (Cozart Amphetamine): 1,428% | cross-reactivity, Cozart Methamphetamine and MDMA [2]: 1.52% | cross-reactivity, Cozart Methamphetamine [3]: 1% | cross-reactivity, Cozart MDMA (Cozart MDMA EIA): 0.2–0.43% | cross-reactivity, CEDIA (Cedia DAU; [5]): 146.5% | cross-reactivity, Emit (Emit II Plus Monoclonal; [5]): 917%

CNC(C)Cc1ccc2c(c1)OCO2 (centres unmarked) [MDMA, 3,4-methylenedioxymethamphetamine]
IC50 (standard concentration which produces 50% B/B0) ([1]; Conjugate 7 (hapten 7-HRP)): 0.017 µg/mL (≈ 0.088 µM) | % B/B0 ([1]; Conjugate 7 (hapten 7-HRP), standard concentration 1 ng/ml): 83.4% | % B/B0 ([1]; Conjugate 7 (hapten 7-HRP), standard concentration 10 ng/ml): 58% | % B/B0 ([1]; Conjugate 7 (hapten 7-HRP), standard concentration 50 ng/ml): 34.7% | % B/B0 ([1]; Conjugate 7 (hapten 7-HRP), standard concentration 100 ng/ml): 26% | % B/B0 ([1]; Conjugate 7 (hapten 7-HRP), standard concentration 250 ng/ml): 15.9% | % B/B0 ([1]; Conjugate 7 (hapten 7-HRP), standard concentration 500 ng/ml): 10.9% | % B/B0 ([1]; Conjugate 7 (hapten 7-HRP), standard concentration 1000 ng/ml): 7.5% | IC50 (standard concentration which produces 50% B/B0) ([1]; Conjugate 10 (hapten 10-HRP)): 0.0236 µg/mL (≈ 0.122 µM) | % B/B0 ([1]; Conjugate 10 (hapten 10-HRP), standard concentration 1 ng/ml): 86.1% | % B/B0 ([1]; Conjugate 10 (hapten 10-HRP), standard concentration 10 ng/ml): 59.3% | % B/B0 ([1]; Conjugate 10 (hapten 10-HRP), standard concentration 50 ng/ml): 34.4% | % B/B0 ([1]; Conjugate 10 (hapten 10-HRP), standard concentration 100 ng/ml): 28.3% | % B/B0 ([1]; Conjugate 10 (hapten 10-HRP), standard concentration 250 ng/ml): 19.6% | % B/B0 ([1]; Conjugate 10 (hapten 10-HRP), standard concentration 500 ng/ml): 14.4% | % B/B0 ([1]; Conjugate 10 (hapten 10-HRP), standard concentration 1000 ng/ml): 8.97% | IC50 ([1]; Trial 1): 0.017 µg/mL (≈ 0.088 µM) | % CR (cross-reactivity = IC50MDMA/IC50CR x 100) ([1]; Trial 1): 100% | IC50 ([1]; Trial 2): 0.03 µg/mL (≈ 0.155 µM) | % CR (cross-reactivity = IC50MDMA/IC50CR x 100) ([1]; Trial 2): 100% | cross-reactivity, Cozart Amphetamine (Cozart Amphetamine): 100% | cross-reactivity, single Cozart methamphetamine kit ([2]; compared to 100% for methamphetamine): 43–49% | cross-reactivity, Cozart Methamphetamine and MDMA [2]: 100% | cross-reactivity, Cozart methamphetamine EIA [3]: 758–1250% | cross-reactivity, Cozart Methamphetamine [3]: 100% | cross-reactivity, Cozart MDMA (Cozart MDMA EIA): 100% | cross-reactivity, CEDIA (Cedia DAU; compared to 100% for D-methamphetamine): 69% | cross-reactivity, CEDIA (Cedia DAU; [5]): 100% | cross-reactivity, Emit (Emit II Plus Monoclonal; compared to 100% for D,L-methamphetamine): 14.3% | cross-reactivity, Emit (Emit II Plus Monoclonal; [5]): 100% | excreted unchanged in urine [4]: 65%

CN[C@@H](C)Cc1ccccc1 [D-Methamphetamine]
IC50 ([1]; Trial 1): 11.138 µg/mL (≈ 74.6 µM) | % CR (cross-reactivity = IC50MDMA/IC50CR x 100) ([1]; Trial 1): 0.15% | level of cross-reactivity of the MDMA assays (in words) [1]: very low levels of cross-reactivity | cross-reactivity, Cozart Methamphetamine and MDMA [2]: 217% | cross-reactivity, Cozart Methamphetamine [3]: 10% | cross-reactivity, Cozart MDMA EIA (Cozart MDMA EIA): 52–80% | cross-reactivity, Cozart MDMA (Cozart MDMA EIA): 52–80% | cross-reactivity, CEDIA (Cedia DAU; [5]): 145%

CCC(Cc1ccc2c(c1)OCO2)NC (centres unmarked) [MBDB, N-methyl-1-(3,4-methylenedioxyphenyl)-2-butamine]
cross-reactivity, Cozart Methamphetamine and MDMA [2]: 319–334.2% | cross-reactivity, Cozart methamphetamine EIA [3]: 150–200% | cross-reactivity, Cozart Methamphetamine [3]: 15–20% | cross-reactivity, Cozart MDMA EIA (Cozart MDMA EIA): 10.4–20% | cross-reactivity, Cozart MDMA (Cozart MDMA EIA): 10.4–20^ %

CC(N)Cc1ccccc1 (racemic) [D,L-Amphetamine]
cross-reactivity, CEDIA (Cedia DAU; [5]): 84.1% | cross-reactivity, Emit (Emit II Plus Monoclonal; [5]): 545.6%

CC(N)Cc1ccc2c(c1)OCO2 (centres unmarked) [MDA, 3,4-methylenedioxyamphetamine]
IC50 ([1]; Trial 1): 0.3 µg/mL (≈ 1.67 µM) | % CR (cross-reactivity = IC50MDMA/IC50CR x 100) ([1]; Trial 1): 5.7% | level of cross-reactivity of the MDMA assays (in words) [1]: lower levels of cross-reactivity | cross-reactivity, Cozart Amphetamine (Cozart Amphetamine): 208488–304164% | cross-reactivity, Cozart Methamphetamine and MDMA [2]: 0.87% | cross-reactivity, Cozart Methamphetamine [3]: 0.36% | cross-reactivity, Cozart MDMA (Cozart MDMA EIA): 0.3–0.74% | cross-reactivity, CEDIA (Cedia DAU; [5]): 2.76% | cross-reactivity, Emit (Emit II Plus Monoclonal; [5]): 430.1%

(−)-Pseudoephedrine
IC50 ([1]; Trial 1): >100 µg/mL | % CR (cross-reactivity = IC50MDMA/IC50CR x 100) ([1]; Trial 1): <0.017%

CCNC(C)Cc1ccc2c(c1)OCO2 (centres unmarked) [MDEA, 3,4-methylenedioxyethylamphetamine]
IC50 ([1]; Trial 2): 0.015 µg/mL (≈ 0.0724 µM) | % CR (cross-reactivity = IC50MDMA/IC50CR x 100) ([1]; Trial 2): 200% | level of cross-reactivity of the MDMA assays (in words) [1]: high levels of cross-reactivity | cross-reactivity, Cozart Amphetamine (Cozart Amphetamine): 228.5% | cross-reactivity, Cozart Methamphetamine and MDMA [2]: 10.85% | cross-reactivity, Cozart methamphetamine EIA [3]: 50–100% | cross-reactivity, Cozart Methamphetamine [3]: 5–10% | cross-reactivity, Cozart MDMA (Cozart MDMA EIA): 7.0–13.0%

CN[C@@H](C)Cc1ccccc1 (racemic) [D,L-Methamphetamine]
cross-reactivity, CEDIA (Cedia DAU; [5]): 94.25% | cross-reactivity, Emit (Emit II Plus Monoclonal; [5]): 699.7%

(+)-Pseudoephedrine
IC50 ([1]; Trial 1): >100 µg/mL | % CR (cross-reactivity = IC50MDMA/IC50CR x 100) ([1]; Trial 1): <0.017%

CN[C@@H](C)[C@H](O)c1ccccc1 [(−)-Ephedrine]
IC50 ([1]; Trial 1): >100 µg/mL | % CR (cross-reactivity = IC50MDMA/IC50CR x 100) ([1]; Trial 1): <0.017%
